{"source": "patent US20200010857A1", "about": "(priority 2016, published 2020)", "key": {"[1]": {"system": "Rhodococcus aetherivorans BCP1", "assay": "Tolerance of BCP1 towards SeO3^2− oxyanions (MIC^Se)", "type": "cell-based", "procedure": "(§1) Rhodococcus aetherivorans BCP1 strain (DSM 44980) was pre-cultured in 250 mL Erlenmeyer Baffled Flask for 48 h in 25 mL of Luria-Bertani medium (indicated as LB) [containing (g/L) NaCl, 10; Yeast Extract, 5; Tryptone, 10]. When necessary the medium was solidified by adding 15 g/L of Agar. BCP1 cells were then inoculated (1% v/v) and grown for 120 h in 50 mL of LB broth to which was added either 0.5 mM or 2 mM of Na2SeO3. This first bacterial growth is here defined as unconditioned. After the unconditioned growth, BCP1 cells were re-inoculated (1% v/v) and cultured for other 120 h in 50 mL of fresh LB medium supplied with a new addition of either 0.5 or 2 mM of Na2SeO3. Here we refer to this bacterial growth as conditioned. Unconditioned or conditioned cultures were incubated aerobically at 30° C. with shaking (150 rpm). Bacterial growth rate was evaluated by spot plate count method every 24 h over the incubation time. LB agar plates containing the spotted cells were recovered for 48 h at 30° C. The number of growing cells is reported as mean the Colony forming Unit (log10[CFU/mL]) with standard deviation. All the reagents were purchased from Sigma-Aldrich®.\nThe BCP1 strain has been exposed to different concentrations of Na2SeO3, ranging from 0.5 to 200 mM as initial concentration to evaluate its tolerance towards these toxic oxyanions. Briefly, after 24 h of exposure to each concentration of Na2SeO3 tested, BCP1 cells were serially diluted in sterile saline solution (NaCl 0.9% w/v) and the number of viable cells were determined by spot plates count on LB agar recovery plates. The assay was conducted in triplicate and the viable cell numbers are indicated as the average of the log10[CFU/mL] with standard deviation."}, "[2]": {"system": "Rhodococcus aetherivorans BCP1", "assay": "Growth of BCP1 in LB supplied with Na2SeO3 (spot plate count)", "type": "cell-based", "settings": "unconditioned cells", "procedure": "as §1"}, "Lysinibacillus sp. ZYM-1": {"system": "Lysinibacillus sp. ZYM-1", "settings": "K2TeO3 in rich medium, aerobic; Zao et al. (2016); cited from earlier work"}, "[3]": {"system": "Rhodococcus aetherivorans BCP1", "assay": "Minimal Inhibitory Concentration (MIC) of tellurite, kill curve", "type": "cell-based", "settings": "for log reduction of BCP1 viable cells: 24 h", "procedure": "The strain Rhodococcus aetherivorans BCP1 (DSM 44980) was pre-cultured in 250 mL Erlenmeyer Baffled Flask for 2 days, containing 25 mL of Luria-Bertani medium (here indicated as LB) [composed of (g/L) NaCl, 10; Yeast Extract, 5; Tryptone, 10]. When necessary, the medium was solidified by adding 15 g/L of Agar. BCP1 cells were then inoculated (1% v/v) and grown for 5 days in 50 mL of LB medium supplied with either 100 (0.4 mM) or 500 (2 mM) μg/mL of K2TeO3. Here we refer to this first bacterial growth as unconditioned. After this growth step, BCP1 cells were re-inoculated (1% v/v) and cultured for other 5 days in 50 mL of fresh LB medium and 100 or 500 μg/mL of K2TeO3. This secondary bacterial growth is here defined as conditioned. Each culture was incubated aerobically at 30° C. with shaking (150 rpm). In order to evaluate the bacterial growth rate, every 24 h an aliquot (100 μL) of BCP1 cells was collected from each culture and serially diluted in sterile saline solution (NaCl 0.9% w/v). The cells were recovered on LB agar plates for 48 h at 30° C. The number of growing cells is reported as average of the Colony Forming Unit per milliliter (CFU mL^−1) counted for each biological trial (n=3) with standard deviation. All the reagents were purchased from Sigma-Aldrich®.\nAfter 24 h of incubation the number of viable cells was determined by spot plates count on LB agar recovery plates. The assay was conducted in triplicate and the data are reported as average of the CFU mL-1 counted with standard deviation. The established MIC and corresponding kill curve was used to choose the best concentration of K2TeO3 to use for nano-material production."}, "Salinicoccus sp. QW6": {"system": "Salinicoccus sp. QW6", "settings": "K2TeO3 in rich medium, aerobic; Amoozegar et al. (2008); cited from earlier work"}, "[4]": {"system": "Corynebacterium difteriaes", "settings": "K2TeO3 in rich medium, aerobic; Tucker et al. (1961); cited from earlier work"}, "bacterial cells": {"system": "bacterial cells", "settings": "cited from earlier work"}, "Bacillus sp. BZ": {"system": "Bacillus sp. BZ", "settings": "K2TeO3 in rich medium, aerobic; Zare et al. (2012); cited from earlier work"}, "Paenibacillus TeW": {"system": "Paenibacillus TeW", "settings": "K2TeO3 in rich medium, aerobic; Chien et al. (2009); cited from earlier work"}, "Bacillus sp. STG-83": {"system": "Bacillus sp. STG-83", "settings": "K2TeO3 in rich medium, aerobic; Soudi et al.(2009); cited from earlier work"}}, "note": "Read-outs that look alike come from different tables or passages of the source.", "data": [{"smiles": "O=[Se](O)O", "note": "[Na2SeO3, sodium selenite]", "values": [{"measurement": "log reduction in number of viable cells", "setting": "[1]; 0.5 mM versus 200 mM Na2SeO3, 24 h", "result": 2, "unit": "log"}, {"measurement": "number of viable cells", "setting": "[1]; 24 h exposure to 0.5 mM Na2SeO3", "result": "2.00·10^6 CFU/mL"}, {"measurement": "number of viable cells", "setting": "[1]; 24 h exposure to 0.5 mM Na2SeO3, listed as SeO3^2−", "result": "2·10^6 CFU/mL"}, {"measurement": "number of viable cells", "setting": "[1]; 24 h exposure to 2 mM SeO3^2−", "result": "1.72·10^6 CFU/mL"}, {"measurement": "number of viable cells", "setting": "[1]; 24 h exposure to 200 mM Na2SeO3", "result": "6.17·10^4 CFU/mL"}, {"measurement": "BCP1 tolerance, times higher than MIC^Se of Streptomyces microflavus FSHJ31", "setting": "[1]; ratio of MIC^Se values", "result": 80, "unit": "times"}, {"measurement": "BCP1 tolerance, times higher than MIC^Se of Streptomyces sp. ES2-5", "setting": "[1]; ratio of MIC^Se values", "result": 4, "unit": "times"}, {"measurement": "number of live cells counted", "setting": "[2]; 0.5 mM Na2SeO3, 72 h", "result": "6.33·10^6 CFU/mL"}, {"measurement": "number of viable cells", "setting": "[2]; 0.5 mM Na2SeO3, 120 h", "result": "1.2·10^6 CFU/mL"}, {"measurement": "number of growing cells", "setting": "[2]; 2 mM Na2SeO3, 72 h", "result": "4.24·10^6 CFU/mL"}, {"measurement": "number of growing cells", "setting": "[2]; 2 mM Na2SeO3, 120 h", "result": "9.83·10^5 CFU/mL"}]}, {"smiles": "O=[Te]([O-])[O-].[K+].[K+]", "note": "[K2TeO3, potassium tellurite]", "values": [{"measurement": "MIC^Te", "setting": "Lysinibacillus sp. ZYM-1", "result": 2000, "unit": "µM"}, {"measurement": "number of BCP1 viable cells", "setting": "[3]; 24 h exposure to 100 μg/mL K2TeO3", "result": "5.00·10^5 CFU/mL"}, {"measurement": "number of BCP1 viable cells", "setting": "[3]; 24 h exposure to 500 μg/mL K2TeO3", "result": "1.00·10^5 CFU/mL"}, {"measurement": "decrease of number of BCP1 viable cells", "setting": "[3]; 24 h exposure to 100 or 500 μg/mL K2TeO3", "result": "less than 1 log"}, {"measurement": "Minimal Inhibitory Concentration (MIC) of TeO3^2−", "setting": "[3]; 24 h exposure to K2TeO3 in LB, aerobic", "result": 2800, "unit": "µg/mL"}, {"measurement": "Minimal Inhibitory Concentration (MIC^Te)", "setting": "[3]; 24 h exposure to K2TeO3 in rich medium (LB), aerobic", "result": 11200, "unit": "µM"}, {"measurement": "log reduction of BCP1 viable cells", "setting": "[3]; K2TeO3 varied from 100 to 1000 μg/mL (0.4-4 mM)", "result": 1, "unit": "log"}, {"measurement": "log reduction of BCP1 viable cells", "setting": "[3]; K2TeO3 varied from 100 to 2000 μg/mL (0.4-8 mM)", "result": 2, "unit": "log"}, {"measurement": "log reduction of viable cells vs number at time of inoculation", "setting": "[3]; at the MIC, 2800 μg/mL K2TeO3, 24 h", "result": 3, "unit": "log"}, {"measurement": "BCP1 strain tolerance relative to MIC^Te of Corynebacterium difteriaes", "setting": "[3]; ratio of MIC^Te values", "result": "ten times higher"}, {"measurement": "MIC^Te", "setting": "Salinicoccus sp. QW6", "result": 12000, "unit": "µM"}, {"measurement": "MIC^Te", "setting": "[4]", "result": 1000, "unit": "µM"}, {"measurement": "MIC^Te", "setting": "bacterial cells; aerobic growth", "result": 2, "unit": "µg/mL"}, {"measurement": "MIC^Te", "setting": "bacterial cells; anaerobic growth", "result": 250, "unit": "µg/mL"}, {"measurement": "MIC^Te", "setting": "Bacillus sp. BZ", "result": 800, "unit": "µM"}, {"measurement": "MIC^Te", "setting": "Paenibacillus TeW", "result": 1000, "unit": "µM"}, {"measurement": "MIC^Te", "setting": "Bacillus sp. STG-83", "result": 1250, "unit": "µM"}]}]}
